Results as given in PubChem BioAssay (NCI).
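Five compound concentrations were applied to cells in 96-well plates for 48 hours; endpoints were derived by simple linear interpolation of the resulting dose-response curve. TGI is the concentration that stops growth completely.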

Experiments:
Assay in all cases: NCI tumour cell line growth inhibition, 48 h
[1] = system: HS 578T breast
[2] = system: BT-549 breast
[3] = system: IGROV1 ovarian
[4] = system: NCI-H522 lung
[5] = system: LOX IMVI melanoma
[6] = system: K-562 leukemia
[7] = system: HOP-62 NSCLC
[8] = system: SN12C renal
[9] = system: SNB-75 CNS
[10] = system: MDA-MB-231 breast
[11] = system: UO-31 renal
[12] = system: UACC-257 melanoma
[13] = system: COLO 205 colon
[14] = system: SF-268 CNS
[15] = system: CAKI-1 renal
[16] = system: HCT-116 colon
[17] = system: A549 NSCLC
[18] = system: MDA-MB-435
[19] = system: OVCAR-5 ovarian
[20] = system: MCF7 breast
[21] = system: SF-295 CNS
[22] = system: SK-OV-3 ovarian
[23] = system: DU-145 prostate
[24] = system: RXF 393 renal
[25] = system: M14 melanoma
[26] = system: HOP-92 NSCLC
[27] = system: NCI-H23 lung
[28] = system: NCI-H460 lung
[29] = system: ACHN renal
[30] = system: SK-MEL-2 melanoma
[31] = system: PC-3 prostate
[32] = system: SF-539 CNS
[33] = system: SK-MEL-5 melanoma
[34] = system: EKVX NSCLC
[35] = system: HL-60(TB) leukemia
[36] = system: TK-10 renal
[37] = system: T-47D breast
[38] = system: NCI/ADR-RES ovarian
[39] = system: CCRF-CEM leukemia
[40] = system: MALME-3M melanoma
[41] = system: HCT-15 colon
[42] = system: HCC-2998 colon
[43] = system: SNB-19 CNS
[44] = system: SW-620 colon
[45] = system: HT29 colon
[46] = system: OVCAR-8 ovarian
[47] = system: SR leukemia
[48] = system: MOLT-4 leukemia
[49] = system: SK-MEL-28 melanoma
[50] = system: OVCAR-3 ovarian
[51] = system: RPMI-8226 leukemia
[52] = system: NCI-H226 lung
[53] = system: OVCAR-4 ovarian
[54] = system: 786-0 renal

Measured: TGI

CC(=O)N1C(Nc2ccccc2)CCN1c1ccccc1 (centres undefined)
> 10 µM: [1] | [2] | [3] | [4] | [5] | [6] | [7] | [8] | [9] | [10] | [11] | [12] | [13] | [14] | [15] | [16] | [17] | [18] | [19] | [20] | [21] | [22] | [23] | [24] | [25] | [26] | [27] | [28] | [29] | [30] | [31] | [32] | [33] | [34] | [35] | [36] | [37] | [38] | [39] | [40] | [41] | [42] | [43] | [44] | [45] | [46] | [47] | [48] | [49] | [50] | [51] | [52] | [53] | [54]
